Experimental data: patent US20050079503A1, “Binding domain of Siah (seven in absentia homolog) protein” (PETER MacCALLUM CANCER INSTITUTE, ST. VINCENT'S INSTITUTE …, priority 2001, published 2005)
Values joined by “and” are separate entries in the source; they are usually repeats but may differ in a detail not shown here. Equal entries are not always repeated. “Also recorded” adds a separate entry of the source. No end group written: not given here. *: point of attachment. Biotin = O=C1N[C@H]2[C@H](CS[C@H]2CCCCC(=O)*)N1

Assays:
Siah1a SBD = target: T1, Siah1a SBD (Mus musculus, UniProt P61092); test: Stoichiometry of the GST-PHYL108-130 / Siah1a SBD complex by gel filtration and N-terminal sequencing; format: binding; conditions: complex isolated on Superdex 200; after five cycles of N-terminal sequencing
T1 construct: isolating a complex of GST-PHYL108-130 and Siah1a SBD by gel filtration; made in house; host or cells: E. coli BL21DE3
T1 sequence (P61092 90-282 limits assumed): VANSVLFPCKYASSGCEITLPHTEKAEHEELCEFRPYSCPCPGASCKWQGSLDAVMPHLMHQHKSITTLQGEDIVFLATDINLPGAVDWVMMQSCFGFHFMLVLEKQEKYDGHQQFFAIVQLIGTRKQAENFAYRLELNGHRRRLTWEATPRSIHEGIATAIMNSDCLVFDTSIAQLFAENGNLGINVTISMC
From the text: The stoichiometry of interaction was investigated by isolating a complex of GST-PHYL108-130 and Siah1a SBD by gel filtration on Superdex 200 and quantitating the components by N-terminal sequencing.

MBP-Siah = target: T2, MBP-Siah (Mus musculus, UniProt P61092); test: Competition assay: peptides as competitors of wild-type PHYL108-130 binding to Siah (96-well plate, anti-MBP detection); conditions: competition with immobilised GST-PHYL108-130 for MBP-Siah, 1 hour at room temperature; estimated from inhibition curves; read-out: IC50 (concentration at which 50% inhibition is observed)
T2 construct: made in house
T2 sequence (P61092 1-282): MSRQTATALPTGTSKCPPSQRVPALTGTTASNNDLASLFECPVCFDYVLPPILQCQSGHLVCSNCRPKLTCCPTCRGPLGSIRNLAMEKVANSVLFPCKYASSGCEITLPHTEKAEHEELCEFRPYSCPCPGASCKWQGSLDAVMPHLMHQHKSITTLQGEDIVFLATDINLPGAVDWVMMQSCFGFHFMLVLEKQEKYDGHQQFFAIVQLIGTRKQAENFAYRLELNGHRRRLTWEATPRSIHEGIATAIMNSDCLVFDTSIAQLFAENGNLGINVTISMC
Experimental: Mutant peptides were used in a competition assay in which they were tested as competitors of wild-type PHYL 108-130 binding to Siah. GST-PHYL108-130 was immobilised in wells of a 96-well plate and MBP-Siah was bound for 1 hour at room temperature, in the presence of various concentrations of mutant peptides. After binding and washing, the amount of bound MBP-Siah was quantitated in a two antibody sandwich of anti-MBP antibody, followed by HRP-conjugated goat anti-rabbit antibody, using ABTS as substrate. IC50 (the concentration at which 50% inhibition is observed) values were estimated from the individual inhibition curves.
In order to test this hypothesis Applicants systematically mutated the PHYL peptide, utilising the solid phase pin technology of Mimotopes (Clayton, Victoria, Australia). A full set of peptides, with alanine substituted at each position in the peptide, was synthesised. At positions where a native alanine occurred, glycine was substituted. Mutant peptides were screened for their ability to compete with the binding between Siah and PHYL peptide, then peptides of interest were investigated further utilising surface plasmon resonance.
The initial screen of peptides yielded IC50 values of approximately 50-100 nM for wild-type peptide or peptides with ineffective mutations. […]

MBP-Siah1a = target: T3, MBP-Siah1a (Mus musculus, UniProt P61092); test: Surface plasmon resonance (Biacore) binding of PHYL108-130 to Siah; conditions: Biacore 2000, peptide immobilised on chip, MBP-Siah1a as analyte, read-out: affinity constant
T3 construct: made in house; host or cells: pMalC2 plasmid
T3 sequence (P61092 1-282): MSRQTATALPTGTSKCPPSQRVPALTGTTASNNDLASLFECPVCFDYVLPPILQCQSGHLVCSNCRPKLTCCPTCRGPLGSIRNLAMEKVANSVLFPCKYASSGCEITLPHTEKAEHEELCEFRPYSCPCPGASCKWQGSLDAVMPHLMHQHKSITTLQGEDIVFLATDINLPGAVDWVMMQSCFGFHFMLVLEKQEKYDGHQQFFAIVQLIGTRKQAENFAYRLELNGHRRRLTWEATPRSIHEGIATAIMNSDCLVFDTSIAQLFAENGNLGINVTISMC
From the text: (§1) The binding kinetics for Siah interaction with PHYL108-130 were monitored using surface plasmon resonance on a Biacore 2000. The biotinylated PHYL108-130 peptide was captured on the chip surface by immobilised neutravidin, and MBP-Siah1a was used as analyte.
(§2) To determine binding affinities, synthetic PHYL peptide was immobilised to a C5 BIAcore chip using two different strategies (direct chemical coupling through the free amino group on Lysine113 and binding to coupled avidin via an N-terminal biotin on the peptide) and interaction was measured directly by surface plasmon resonance. This method facilitated the measurement of association and dissociation rates, and the determination of an affinity constant (FIG. 26).

[1] = target: T4, MBP-Siah1a-ZC fusion protein (native Siah substrate-binding domain) (Mus musculus, UniProt P61092); test: ELISA-based binding of biotinylated plectin peptide to Siah substrate-binding domain; conditions: peptide captured on Neutravidin plate at 4 μg/ml; ABTS read at A405
T4 construct: made in house; host or cells: E. coli BL21DE3
T4 sequence (P61092 80-282): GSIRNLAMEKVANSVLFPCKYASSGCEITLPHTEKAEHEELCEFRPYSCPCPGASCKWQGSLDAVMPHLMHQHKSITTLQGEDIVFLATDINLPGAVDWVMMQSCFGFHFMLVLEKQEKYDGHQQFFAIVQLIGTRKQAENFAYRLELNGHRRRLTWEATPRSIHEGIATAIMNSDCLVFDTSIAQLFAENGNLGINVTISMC
Experimental: (§3) Siah SBD binding to the plectin peptide (Biotin-[…]-NH2 corresponding to residues 95-117 of human plectin) was assessed by capturing biotinylated peptide on a 96-well plate coated with 0.5 μg Neutravidin per well. Peptide was captured for 30 min at room temperature at a concentration of 4 μg/ml. MBP-Siah1a-ZC fusion protein was bound to the peptide for 50 min at room temperature (or the controls of buffer alone (PBS/tween 20) or mutant MBP-Siah1a-ZC containing a Leu211 to Arg mutation). Bound protein was quantitated by rabbit anti-MBP antibody (1:300 dilution), then HRP conjugated goat-anti-rabbit antibody. Detection utilised ABTS substrate read at A405.
(§4) Following the identification of a Siah binding motif present in PHYL (RPVAXVXPXXR), a protein database search detected a number of proteins with conserved motifs, including plectin. The Applicants utilised a synthetic peptide corresponding to the sequence […] in plectin to test binding to Siah in an ELISA-based assay, where the underlined sequence corresponds to the amino acids conserved with the PHYL motif. […] Furthermore, as other Siah binding proteins are identified in this way it is predicted that the sequence of the optimal binding motif will be further refined.

[2] = target: T5, mutant MBP-Siah1a-ZC containing a Leu211 to Arg mutation (Mus musculus, UniProt P61092, L211R); test: ELISA-based binding of biotinylated plectin peptide to mutant Siah substrate-binding domain; conditions: peptide captured on Neutravidin plate at 4 μg/ml; ABTS read at A405
T5 construct: made in house; the making of the mutant is not described
T5 sequence (P61092 80-282 L211R): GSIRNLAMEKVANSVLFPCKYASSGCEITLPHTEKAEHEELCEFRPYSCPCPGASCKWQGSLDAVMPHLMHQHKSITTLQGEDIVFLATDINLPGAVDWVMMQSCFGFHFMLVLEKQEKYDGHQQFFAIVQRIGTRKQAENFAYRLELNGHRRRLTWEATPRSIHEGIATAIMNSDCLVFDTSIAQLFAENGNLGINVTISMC
Experimental: as §3, §4

Siah = target: T6, Siah (Mus musculus, UniProt P61092); test: Interaction studies using bacterially expressed proteins; format: binding
T6 construct: made in house; host or cells: bacteria
T6 sequence (P61092 1-282): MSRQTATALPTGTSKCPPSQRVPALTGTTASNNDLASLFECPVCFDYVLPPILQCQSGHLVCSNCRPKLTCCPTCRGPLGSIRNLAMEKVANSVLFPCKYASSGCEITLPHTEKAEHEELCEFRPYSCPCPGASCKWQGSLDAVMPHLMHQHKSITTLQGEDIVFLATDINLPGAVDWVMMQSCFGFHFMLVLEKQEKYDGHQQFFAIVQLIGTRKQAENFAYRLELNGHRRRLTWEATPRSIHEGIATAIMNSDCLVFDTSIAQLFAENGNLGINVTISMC
From the text: PHYL is known to interact and function with SINA, the Drosophila orthologue of mammalian Siah, in the targeted degradation of the transcriptional repressor tramtrack 88 (TTK88). Applicants have shown that it interacts similarly with mammalian Siah.

[3] = target: T7, MBP-Siah1a fusion protein (mouse, UniProt P61092 1-282, limits assumed); test: SPR, Biacore 2000; biotinylated peptide captured on immobilised neutravidin, MBP-Siah1a as analyte
T7 construct: not shown: linker to Siah1a not described
T7 sequence (looked up): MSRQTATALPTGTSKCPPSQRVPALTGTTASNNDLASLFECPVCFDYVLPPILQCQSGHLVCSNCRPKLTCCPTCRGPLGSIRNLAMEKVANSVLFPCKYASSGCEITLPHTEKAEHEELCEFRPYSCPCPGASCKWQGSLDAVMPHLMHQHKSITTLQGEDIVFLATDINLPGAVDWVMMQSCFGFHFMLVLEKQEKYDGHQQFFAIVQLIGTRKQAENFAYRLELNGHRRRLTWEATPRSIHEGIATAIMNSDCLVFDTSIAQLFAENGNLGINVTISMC
From the text: as §1, §2

GST-PHYL108-130: PHYL 23-residue peptide expressed as a fusion with glutathione-S-transferase (GST) (QQERTKLRPVAMVRPTVRVQPQL; not fully specified (N-terminus); also: GST fusion)
average ratio of Siah binding domain to GST-PHYL108-130 residues (Siah1a SBD): 2.34±0.38

QQERTKLRPVAMVRPTVRVQPQL [PHYL108-130]
IC50 (MBP-Siah): 50 to 100 nM
Kd (MBP-Siah1a): ~180 nM and 180 nM

Biotin-ASLQRVRRPVAMVMPARRTPHVQ-NH2 [plectin peptide]
binding to native Siah substrate-binding domain [1]: bound; also recorded: binds
binding to mutant form of Siah substrate-binding domain (Leu211 to Arg) [2]: not

DCC: deleted in colorectal cancer (DCC)
affinity of interaction with Siah (in words) (Siah): lower affinity

Biotin-QQERTKLRPVAMVRPTVRVQPQL (also called synthetic PHYL peptide) [biotinylated PHYL108-130 peptide]
Kd [3]: 180 nM
